This passage reports IC50 results from US9499551B2, “Substituted pyrrolo[2,3-b]pyridines for treating cancer or inflammatory diseases” (Confluence Life Sciences, Inc., priority 2014, dated 2016).

As a reminder, the pIC50 is the negative decadic logarithm of the IC50, by convention in mol/L.

One assay has as its target T1, TAK1-TAB1 (Homo sapiens, UniProt O43318).
T1 sequence (O43318 with tags, fused parts or gaps limits assumed): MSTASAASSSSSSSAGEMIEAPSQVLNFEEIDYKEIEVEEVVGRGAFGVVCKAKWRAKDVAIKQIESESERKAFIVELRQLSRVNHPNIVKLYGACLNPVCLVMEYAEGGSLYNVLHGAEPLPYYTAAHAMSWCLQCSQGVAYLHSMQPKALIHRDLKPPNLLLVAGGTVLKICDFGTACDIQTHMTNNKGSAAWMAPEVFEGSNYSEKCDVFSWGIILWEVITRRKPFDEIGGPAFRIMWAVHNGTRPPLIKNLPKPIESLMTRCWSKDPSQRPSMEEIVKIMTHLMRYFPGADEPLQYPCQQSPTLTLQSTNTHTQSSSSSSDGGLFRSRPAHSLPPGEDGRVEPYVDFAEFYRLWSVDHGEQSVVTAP
Description: TAK1-TAB1 binding inhibitory potency (LanthaScreen competitive binding assay, kinase tracer-236). The following applies: 10 nM TAK1-TAB1, 100 nM kinase tracer-236; read-out: TAK1-Tab Inhibition IC50. The procedure, abridged: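 Compounds were tested for TAK1-TAB1 binding in a 384-well LanthaScreen competitive FRET assay. TAK1-TAB1 (10 nM) and Eu-anti-his antibody (2 nM) were preincubated with compound for two hours before adding 100 nM Alexa Fluor 647 kinase tracer-236. The buffer was 20 mM HEPES pH 7.5, 10 mM MgCl2, 0.01% BSA, 0.0005% Tween-20 and 2% DMSO. IC50 came from 4-parameter logistic fits of emission ratio over an 11-point series from 20 μM to 0.34 nM.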
Background: TR-FRET usually uses a lanthanide donor and a delayed reading to cut background.

Assay [1] has as its system IL-6 Production in Human Peripheral Blood Mononuclear Cells (PBMC). Description: LPS stimulated IL-6 production in PBMC cells. The assay is classed as cell-based. Particulars: read-out: IL-6 Production Inhibition IC50. How it is done:
LPS Stimulated IL-6 Production in PBMC Cells:
Lipopolysaccharide (LPS) stimulated IL-6 Production in Human Peripheral Blood Mononuclear Cells (PBMC): The cellular efficacy of compound candidates is determined using peripheral blood mononuclear cells purified from human whole blood, based upon the methods of Burnette et al. (2009) Pharmacology, 84:42-60. PBMC produce a number of cytokines (IL6, IL8, IL1β and TNFα) in response to stimulation with LPS. To induce the production of inflammatory mediators, PBMC are plated at a final concentration of 2×10^5 cells/well in a 96 well flat bottom plate in DMEM medium supplemented with 10% fetal bovine serum, 100 units/ml penicillin and 100 μg/ml streptomycin (Gibco BRL Life Technologies). Cells are treated with or without inhibitors for 1-3 hrs then stimulated with 100 ng/ml LPS (serotype 011:B4, Sigma) for an additional 3 hrs at 37° C. with 5% CO2. The supernatants are removed and stored at −20° C. until they are to be assayed. The levels of inflammatory mediators are determined using commercial MSD cytokine kits (Meso Scale Discovery) as per the manufacturer's instructions. Standard curves are based on 7 steps of 4× serial dilutions, with a wide dynamic range of 10000 pg/ml to 2.4 pg/ml, and a blank. Lower limit of detection (LLOD) is calculated at the commonly used 3× the standard deviation of the blank.

pIC50: −log10 of the molar value.

Take `CC(C)(C)OC(=O)NC1CN(c2cnc3[nH]cc(/C=C/C(N)=O)c3c2)C1` [Example 269, (E)-tert-butyl(1-(3-(3-amino-3-oxoprop-1-en-1-yl)-1H-pyrrolo[2,3-b]pyridin-5-yl)azetidin-3-yl)carbamate]: the pIC50 (at TAK1-TAB1; in assay [1]) was at least 6.00 in each case.

With `NC(=O)/C=C/c1c[nH]c2ncc(-c3ccc(C(=O)NC4CC4)cc3)cc12` [Example 270, (E)-4-(3-(3-amino-3-oxoprop-1-en-1-yl)-1H-pyrrolo[2,3-b]pyridin-5-yl)-N-cyclopropyl-benzamide], the figures for the pIC50 (at TAK1-TAB1; in assay [1]) were at least 6.00 and under 6.00, respectively.

Take `CCOCCN1CCN(c2cnc3[nH]cc(/C=C/C(N)=O)c3c2)CC1` [Example 271, (E)-3-(5-(4-(2-ethoxyethyl)piperazin-1-yl)-1H-pyrrolo[2,3-b]pyridin-3-yl)acrylamide]: the pIC50 (at TAK1-TAB1; in assay [1]) was at least 6.00 in each case.

`CC(C)Oc1cc(-c2cnc3[nH]cc(/C=C/C(N)=O)c3c2)cc(C(F)(F)F)n1` [Example 272, (E)-3-(5-(2-isopropoxy-6-(trifluoromethyl)pyridin-4-yl)-1H-pyrrolo[2,3-b]pyridin-3-yl)acrylamide]: the pIC50 (on TAK1-TAB1; in assay [1]) was at least 6.00 each time.

For the molecule `CN1CCN(c2cc(-c3cnc4[nH]cc(/C=C/C(N)=O)c4c3)ccn2)CC1` [Example 273, (E)-3-(5-(2-(4-methylpiperazin-1-yl)pyridin-4-yl)-1H-pyrrolo[2,3-b]pyridin-3-yl)acrylamide], the pIC50 (at TAK1-TAB1; in assay [1]) was at least 6.00 in each case.

As to `NC(=O)/C=C/c1c[nH]c2ncc(Cc3ccc(F)cc3)cc12` [Example 274, (E)-3-(5-(4-fluorobenzyl)-1H-pyrrolo[2,3-b]pyridin-3-yl)acrylamide], the pIC50 (at TAK1-TAB1; in assay [1]) was at least 6.00 in each case.

As for `NC(=O)/C=C/c1c[nH]c2ncc(Cc3ccc(F)cc3F)cc12` [Example 275, (E)-3-(5-(2,4-difluorobenzyl)-1H-pyrrolo[2,3-b]pyridin-3-yl)acrylamide], the pIC50 (on TAK1-TAB1; in assay [1]) was at least 6.00 each time.

Turning to `C[C@H](O)C(=O)N1CCN(c2cnc3[nH]cc(/C=C/C(N)=O)c3c2)CC1` [Example 276, (S,E)-3-(5-(4-(2-hydroxypropanoyl)piperazin-1-yl)-1H-pyrrolo[2,3-b]pyridin-3-yl)acrylamide], the negative logarithm of the IC50 (pIC50) is at least 6.00 at TAK1-TAB1 and under 6.00 in assay [1].

With `C[C@@H](O)C(=O)N1CCN(c2cnc3[nH]cc(/C=C/C(N)=O)c3c2)CC1` [Example 277, (R,E)-3-(5-(4-(2-hydroxypropanoyl)piperazin-1-yl)-1H-pyrrolo[2,3-b]pyridine-3-yl)acrylamide], the pIC50 was at least 6.00 at TAK1-TAB1 and under 6.00 in assay [1].

Turning to `NC(=O)/C=C/c1c[nH]c2ncc(N3CCN(C(=O)C4CCCC4)CC3)cc12` [Example 278, (E)-3-(5-(4-(cyclopentane-carbonyl)piperazin-1-yl)-1H-pyrrolo[2,3-b]pyridin-3-yl)acrylamide], the pIC50 on TAK1-TAB1 was at least 6.00; in assay [1], under 6.00.

Consider `N#C/C=C/c1c[nH]c2ncc(N3CCN(C(=O)c4ccccc4)CC3)cc12` [Example 279, (E)-3-(5-(4-benzoylpiperazin-1-yl)-1H-pyrrolo[2,3-b]pyridin-3-yl)acrylonitrile], for which the pIC50 is at least 6.00 at TAK1-TAB1 and under 6.00 in assay [1].

Regarding `CC(C)NC(=O)c1ccc(-c2cnc3[nH]cc(/C=C/C(N)=O)c3c2)cn1` [Example 280, (E)-5-(3-(3-amino-3-oxoprop-1-en-1-yl)-1H-pyrrolo[2,3-b]pyridin-5-yl)-N-isopropyl-picolinamide], the pIC50 (on TAK1-TAB1; in assay [1]) was at least 6.00 in each case.

Consider `NC(=O)/C=C/c1c[nH]c2ncc(-c3ccc(C(=O)N4CCCC4)nc3)cc12` [Example 281, (E)-3-(5-(6-(pyrrolidine-1-carbonyl)pyridin-3-yl)-1H-pyrrolo[2,3-b]pyridin-3-yl)acrylamide], for which the figures for the pIC50 (on TAK1-TAB1; in assay [1]) were at least 6.00 and under 6.00, respectively.

As to `CC(C)(C)C(=O)NC1CN(c2cnc3[nH]cc(/C=C/C(N)=O)c3c2)C1` [Example 282, (E)-3-(5-(3-pivalamidoazetidin-1-yl)-1H-pyrrolo[2,3-b]pyridin-3-yl)acrylamide], the pIC50 (at TAK1-TAB1; in assay [1]) was under 6.00 throughout.

Consider `CC(C)C(=O)NC1CN(c2cnc3[nH]cc(/C=C/C(N)=O)c3c2)C1` [Example 283, (E)-3-(5-(3-isobuty-ramidoazetidin-1-yl)-1H-pyrrolo[2,3-b]pyridin-3-yl)acrylamide], for which the pIC50 (at TAK1-TAB1; in assay [1]) was at least 6.00 in each case.

With `CC(C)Oc1ccc(-c2cnc3[nH]cc(/C=C/C(N)=O)c3n2)cn1` [Example 284, (E)-3-(2-(6-isopropoxypyridin-3-yl)-5H-pyrrolo[2,3-b]pyrazin-7-yl)acrylamide], the pIC50 (on TAK1-TAB1; in assay [1]) was at least 6.00 throughout.

Take `N#Cc1ccc(-c2cnc3[nH]cc(/C=C/C(N)=O)c3n2)cn1` [Example 285, (E)-3-(2-(6-cyanopyridin-3-yl)-5H-pyrrolo[2,3-b]pyrazin-7-yl)acrylamide]: the pIC50 (on TAK1-TAB1; in assay [1]) was at least 6.00 throughout.

Take `NC(=O)/C=C/c1c[nH]c2ncc(-c3cncnc3)cc12` [Example 286, (E)-3-(5-(pyrimidin-5-yl)-1H-pyrrolo[2,3-b]pyridin-3-yl)acrylamide]: the results for the pIC50 (at TAK1-TAB1; in assay [1]) were at least 6.00 and under 6.00, respectively.

Regarding `CSc1ncc(-c2cnc3[nH]cc(/C=C/C(N)=O)c3c2)cn1` [Example 287, (E)-3-(5-(2-(methylthio)pyrimidin-5-yl)-1H-pyrrolo[2,3-b]pyridin-3-yl)acrylamide], the pIC50 (on TAK1-TAB1; in assay [1]) was at least 6.00 throughout.

Consider `NC(=O)/C=C/c1c[nH]c2ncc(N3CCN(C(=O)c4ncc(F)cc4F)CC3)cc12` [Example 288, (E)-3-(5-(4-(3,5-difluoropicolinoyl)piperazin-1-yl)-1H-pyrrolo[2,3-b]pyridin-3-yl)acrylamide], for which the values for the negative logarithm of the IC50 (pIC50) (on TAK1-TAB1; in assay [1]) were at least 6.00 and under 6.00, respectively.

Take `CC(C)(O)CN1CCN(c2cnc3[nH]cc(/C=C/C(N)=O)c3c2)CC1` [Example 289, (E)-3-(5-(4-(2-hydroxy-2-methylpropyl)piperazin-1-yl)-1H-pyrrolo[2,3-b]pyridin-3-yl)acrylamide]: the negative-log IC50 (pIC50) is at least 6.00 on TAK1-TAB1 and under 6.00 in assay [1].

On to `CC(C)(O)COc1ccc(-c2cnc3[nH]cc(/C=C/C(N)=O)c3c2)cn1` [Example 291, (E)-3-(5-(6-(2-hydroxy-2-methylpropoxy)pyridin-3-yl)-1H-pyrrolo[2,3-b]pyridin-3-yl)acrylamide], for which the pIC50 (on TAK1-TAB1; in assay [1]) was at least 6.00 throughout.

For `CC(C)(O)Cn1cc(-c2cnc3[nH]cc(/C=C/C(N)=O)c3c2)ccc1=O` [Example 292, (E) -3-(5-(1-(2-hydroxy-2-methylpropyl)-6-oxo-1,6-dihydropyridin-3-yl)-1H-pyrrolo[2,3-b]pyridin-3-yl)acrylamide], the pIC50 is at least 6.00 at TAK1-TAB1 and under 6.00 in assay [1].

In the case of `CC(=O)O[C@@H](C)CNC(=O)c1ccc(-c2cnc3[nH]cc(/C=C/C(N)=O)c3c2)cc1` [Example 293, (S,E)-1-(4-(3-(3-amino-3-oxoprop-1-en-1-yl)-1H-pyrrolo[2,3-b]pyridin-5-yl)benzamido) propan-2-yl acetate], the values for the pIC50 (on TAK1-TAB1; in assay [1]) were at least 6.00 and under 6.00, respectively.

Turning to `C[C@@H](O)CNC(=O)c1ccc(-c2cnc3[nH]cc(/C=C/C(N)=O)c3c2)cc1` [Example 294, (R,E)-4-(3-(3-amino-3-oxoprop-1-en-1-yl)-1H-pyrrolo[2,3-b]pyridin-5-yl)-N-(2-hydroxypropyl) benzamide], the pIC50 at TAK1-TAB1 was at least 6.00; in assay [1], under 6.00.

On to `CC(C)NC(=O)c1ccc(-c2cnc3[nH]cc(/C=C/C(N)=O)c3c2)nc1` [Example 295, (E)-6-(3-(3-amino-3-oxoprop-1-en-1-yl)-1H-pyrrolo[2,3-b]pyridin-5-yl)-N-isopropyl-nicotinamide], for which the results for the pIC50 (on TAK1-TAB1; in assay [1]) were at least 6.00 and under 6.00, respectively.
